Where a name gives a salt, the structure may show the parent alone. Read-outs that look alike come from different tables or passages of the source. Square brackets hold non-standard residues; d marks the D form. Peptide text beside a SMILES is read from it. dLac(3-vinyl) = C=CC[C@@H](O)C(=O)O; dHica = CC(C)C[C@@H](O)C(=O)O; NMeV = CN[C@H](C(=O)O)C(C)C; NMeA = CN[C@@H](C)C(=O)O; βAla = NCCC(=O)O
Tests used:
[1] = system: HCT116/wt cells; assay: Cell viability assay (MTT, EZ4U); type: cell-based, human; settings: mean (± SD) of at least three independent experiments in triplicates
[2] = system: HCT116/dtxE cells; assay: Cell viability assay (MTT, EZ4U); type: cell-based, human; settings: for IC50: HCT116/dtxE, about one year of selection, MTT, mean (± SD), n ≥ 3; for relative resistance: mean IC50 HCT116/dtxE divided by IC50 HCT116/wt
[3] = system: HCT116/dtxA cells; assay: Cell viability assay (MTT, EZ4U); type: cell-based, human; settings: for IC50: n ≥ 3
[4] = system: HCT116/dtxB cells; assay: Cell viability assay (MTT, EZ4U); type: cell-based, human; settings: for IC50: n ≥ 3
[5] = system: HeLa cell derivative; design: method as in PMID 19517454; settings: 18 months selection period of a HeLa cell derivative; cited from earlier work
[6] = system: HCT116/wt cells; assay: Annexin-V/PI staining (apoptosis/necrosis); type: cell-based, human; settings: 48 h, 5 μM dtxA, 2.5 μM dtxB, dtxE around the IC50 value, FACS
[7] = system: HCT116/wt cells; assay: JC-1 mitochondrial membrane depolarization; type: cell-based, human; settings: parental cells, 48 h, JC-1, FACS
Experimental: (§1) Parental and dtx-resistant cells were seeded (1x10^5 cells/well in 6-well plates) and treated on the following day for 48 h with the indicated concentrations of dtxA, dtxB or dtxE. Next, the mitochondrial membrane potential (ΔΨm) was measured. In doing so, cells were detached by trypsinization, centrifuged with 300× g for 5 min at 4°C and stained with the fluorescent dye JC-1 (5,5’,6,6’-tetrachloro-1,1’,3’,3’-tetraethyl-benzimidazolylcarbocyanine iodide) for 10 min at 37°C. FACS analysis was performed according to the manufacturer’s instructions (Mitochondrial Membrane Potential detection Kit; Stratagene, La Jolla, CA, USA). To further compare apoptotic changes in the parental and resistant cells, Annexin V-APC/PI stainings were carried out.

[8] = system: resistant sublines (HCT116/dtxA, HCT116/dtxB, HCT116/dtxE); assay: JC-1 mitochondrial membrane depolarization; type: cell-based, human; settings: each destruxin in its respective resistant subline, 48 h, JC-1, FACS
Experimental: as §1

[9] = system: HCT116/dtxA cells; assay: Whole-cell patch clamp, ionophoric activity; type: cell-based, human; settings: resistant HCT116/dtxA, 20 μM dtxA, whole-cell mode, membrane potential -60 mV, RT
Experimental: (§2) Ionophoric activity of dtxA, dtxB and dtxE was determined by patch clamp experiments, performed as previously described. Briefly, ionic currents were recorded in whole-cell mode at RT. Glass electrodes with a resistance less than 5 MΩ were pulled with a DMZ universal puller and filled with intracellular solution (120 mM CsF, 20 mM CsCl, 5 mM EGTA, 5 mM HEPES; pH 7.4). HCT116/wt or resistant cells were perfused with extracellular solution (140 mM NaCl, 4 mM KCl, 1.8 mM CaCl2, 0.75 mM MgCl2, 5 mM HEPES; pH 7.4) in a 1 mL chamber. After obtaining a whole-cell configuration, cells were allowed to equilibrate for 5 min before recording any currents and then pulsed to -60 mV for 10 sec pulses. Data were filtered at 5 kHz and digitized at 10 kHz by using digidata 1440A. Traces were averaged and subtracted from control recording, in the presence or absence of 20 μM dtxA, dtxB or dtxE, to observe ionophoric activity.

[10] = system: HCT116/wt cells; assay: Whole-cell patch clamp, ionophoric activity; type: cell-based, human; settings: parental HCT116/wt, 20 μM dtxA, whole-cell mode, membrane potential -60 mV, RT
Experimental: as §2

[11] = system: MCF7; assay: Cell viability, dtxA combined with mevalonate pathway inhibitors; type: cell-based, human; settings: MCF7, intrinsically low sensitivity, inhibitor with dtxA, 72 h
[12] = system: BT20; assay: as above; type: cell-based, human; settings: BT20, intrinsically low sensitivity, inhibitor with dtxA, 72 h
[13] = system: HCT116/dtxA cells; assay: Cell viability, dtxA combined with mevalonate pathway inhibitors, combination index; type: cell-based, human
[14] = system: parental HCT116; assay: Cell viability, dtxA combined with mevalonate pathway inhibitors; type: cell-based, human; settings: parental HCT116, inhibitor with dtxA, 72 h
[15] = system: HCT116/dtxE cells; settings: 10 μM verapamil or 1 μM cyclosporin A with increasing dtxE
[16] = HCT116/dtxA, about one year of selection, 72 h, MTT, mean (± SD)
[17] = HCT116/dtxB, about one year of selection, 72 h, MTT, mean (± SD)
[18] = mean IC50 HCT116/dtxA divided by IC50 HCT116/wt
[19] = mean IC50 HCT116/dtxB divided by IC50 HCT116/wt
[20] = HCT116/dtxA, inhibitor 24 h pretreatment, then dtxA 72 h, statins at concentrations above 2.5 μM, Chou-Talalay, CalcuSyn, CI < 1 synergism

Structure (SMILES): O=c1[nH]cc(F)c(=O)[nH]1 [5-FU]
- IC50 ([1]; 72 h): 52000 nM
- IC50 ([2]; 72 h): 34700 nM
- IC50 [3, 16]: 36400 nM
- IC50 [4, 17]: 38900 nM

Structure (SMILES): CC(C)[C@H]1OC(=O)[C@H](Cc2ccccc2)N(C)C(=O)[C@@H](C(C)C)OC(=O)[C@H](Cc2ccccc2)N(C)C(=O)[C@@H](C(C)C)OC(=O)[C@H](Cc2ccccc2)N(C)C1=O [Beauvericin]
- resistance obtained [5]: no resistance

Structure (SMILES): N.N.[Cl][Pt][Cl] [Cisplatin]
- IC50 ([1]; 72 h): 4000 nM
- IC50 ([2]; 72 h): 4400 nM
- IC50 [3, 16]: 1900 nM
- IC50 [4, 17]: 2200 nM

Structure (SMILES): Nc1ccn([C@@H]2O[C@H](CO)[C@@H](O)C2(F)F)c(=O)n1 [Gemcitabin]
- IC50 ([1]; 72 h): 400 nM
- IC50 ([2]; 72 h): 300 nM
- IC50 [3, 16]: 400 nM
- IC50 [4, 17]: 400 nM

Structure (SMILES): O=C1[O][Pt]2([NH][C@@H]3CCCC[C@H]3[NH]2)[O]C1=O [Oxaliplatin]
- IC50 ([1]; 72 h): 800 nM
- IC50 ([2]; 72 h): 400 nM
- IC50 [3, 16]: 500 nM
- IC50 [4, 17]: 1000 nM

Structure (SMILES): CC[C@@]1(O)C(=O)OCc2c1cc1n(c2=O)Cc2cc3c(CN(C)C)c(O)ccc3nc2-1 [Topotecan]
- IC50 ([1]; Homo sapiens, HCT-116, 72 h): 27.4 nM
- IC50 ([2]; Homo sapiens, HCT-116, 72 h): 25 nM
- IC50 ([3]; Homo sapiens, HCT-116, HCT116/dtxA, about one year of selection, 72 h, MTT, mean (± SD)): 26 nM
- IC50 ([4]; Homo sapiens, HCT-116, HCT116/dtxB, about one year of selection, 72 h, MTT, mean (± SD)): 8.2 nM

Structure (SMILES): NC(=S)N/N=C/c1ncccc1N [Triapin]
- IC50 ([1]; 72 h): 800 nM
- IC50 ([2]; 72 h): 800 nM
- IC50 [3, 16]: 600 nM
- IC50 [4, 17]: 800 nM

Structure (SMILES): C=CC[C@H]1OC(=O)CCNC(=O)[C@H](C)N(C)C(=O)[C@H](C(C)C)N(C)C(=O)[C@H]([C@@H](C)CC)NC(=O)[C@@H]2CCCN2C1=O [dtxA, destruxin A] (cyclo([dLac(3-vinyl)]PI[NMeV][NMeA][βAla]))
- percentages of early and/or late apoptotic cells [6]: markedly and significantly increased
- mitochondrial membrane depolarization [7]: only observed in parental cells
- mitochondrial membrane depolarization [8]: no significant increase
- relative resistance [2]: 0.3 -fold
- mean total current (pore forming ability) [9]: -0.2 pA/ms
- mean total current (pore forming ability) [10]: -0.7 pA/ms
- IC50 ([3]; HCT116/dtxA (unsel.), removed from drug selection for one month, 72 h, mean): > 100000 nM
- relative resistance ([3]; HCT116/dtxA vs HCT116/wt, month 6 after selection start): 3.5 -fold
- relative resistance ([3]; HCT116/dtxA vs HCT116/wt, month 8 after selection start): > 20 -fold
- IC50 [3, 16]: > 100000 nM
- relative resistance [3, 18]: >28.6 -fold
- relative resistance [4, 19]: 21.8 -fold

Structure (SMILES): CC[C@H](C)[C@@H]1NC(=O)[C@@H]2CCCN2C(=O)[C@@H](CC(C)C)OC(=O)CCNC(=O)[C@H](C)N(C)C(=O)[C@H](C(C)C)N(C)C1=O [dtxB, destruxin B] (cyclo([dHica]PI[NMeV][NMeA][βAla]))
- percentages of early and/or late apoptotic cells [6]: markedly and significantly increased
- mitochondrial membrane depolarization [7]: only observed in parental cells
- mitochondrial membrane depolarization [8]: no significant increase
- relative resistance [2]: 0.3 -fold
- relative resistance [3, 18]: 18.2 -fold
- IC50 ([4]; HCT116/dtxB (unsel.), removed from drug selection for one month, 72 h, mean): > 100000 nM
- relative resistance ([4]; HCT116/dtxB vs HCT116/wt, month 4 after selection start): 4.4 -fold
- relative resistance ([4]; HCT116/dtxB vs HCT116/wt, month 6 after selection start): 4.2 -fold
- relative resistance ([4]; HCT116/dtxB vs HCT116/wt, month 8 after selection start): > 25 -fold
- relative resistance ([4]; HCT116/dtxB vs HCT116/wt, month 12 after selection start): > 40 -fold
- IC50 [4, 17]: > 100000 nM
- relative resistance [4, 19]: >40 -fold

Structure (SMILES): CC(C)n1c(/C=C/C(O)CC(O)CC(=O)O)c(-c2ccc(F)cc2)c2ccccc21 (stereo not drawn) [fluvastatin, fluvastatin sodium salt hydrate]
- effect on cytotoxic activity of dtxA [11]: augmented
- effect on cytotoxic activity of dtxA [12]: augmented
- combination index (CI) in combination with dtxA [13, 20]: smaller than 1
- effect on cytotoxic activity of dtxA [14]: augmented

Structure (SMILES): CC[C@H](C)C(=O)O[C@H]1C[C@@H](C)C=C2C=C[C@H](C)[C@H](CC[C@@H]3C[C@@H](O)CC(=O)O3)[C@H]21 [lovastatin, lovastatin (Mevinolin)]
- combination index (CI) in combination with dtxA [13, 20]: smaller than 1
- effect on cytotoxic activity of dtxA [14]: augmented

Structure (SMILES): COc1ccc(CCN(C)CCCC(C#N)(c2ccc(OC)c(OC)c2)C(C)C)cc1OC (stereo not drawn) [verapamil]
- sensitivity of HCT116/dtxE cells towards dtxE on co-incubation [15]: partly restored

Structure (SMILES): CC[C@]1(O)C[C@H]2CN(CCc3c([nH]c4ccccc34)[C@@](C(=O)OC)(c3cc4c(cc3OC)N(C=O)[C@H]3[C@@](O)(C(=O)OC)[C@H](OC(C)=O)[C@]5(CC)C=CCN6CC[C@]43[C@@H]65)C2)C1 [vincristine]
- cytotoxic activity compared to parental cells ([2]; HCT116/dtxE vs HCT116/wt, 72 h): significantly reduced cytotoxic activity
- cytotoxic activity compared to parental cells (reduction) ([3]; HCT116/dtxA vs HCT116/wt, 72 h): absent
- cytotoxic activity compared to parental cells (reduction) ([4]; HCT116/dtxB vs HCT116/wt, 72 h): very weak

Structure (SMILES): O=P(O)(O)C(O)(Cn1ccnc1)P(=O)(O)O [zoledronic acid, zoledronic acid monohydrate]
- effect on cytotoxic activity of dtxA [11]: augmented
- effect on cytotoxic activity of dtxA [12]: augmented
- combination index (CI) in combination with dtxA [13]: smaller than 1
- effect on cytotoxic activity of dtxA [14]: augmented

— paper PMC5986646
